Where two headings read alike, the source gives them in different places.
What was measured:
CCD1079SK fibroblasts = assay: Induction of pluripotency marker genes (qRT-PCR); assay type: cell-based, human; details: 2 μM, 72 h after electroporation
Protocol: CCD1079SK fibroblasts were either mock electroporated or electroporated with IVT RNA encoding for firefly luciferase (1 μg), eGFP (1.25 μg), SV40 Large T (1.25 μg), HPV16-E6 (1.25 μg), OCT4, SOX2, KLF4, cMYC, NANOG and LIN28 (2.5 μg OCT4 and equimolar amounts for the others). Electroporations were performed in 2 mm gap cuvettes using optimized parameters for CCDs. The cells were plated into 6-well-plates at a density of 250000 cells/well and either left untreated or incubated with 2 μM C13H8N4OS as indicated. […] GDF3 and hTERT induction was increased by the treatment 72 h after electroporation.
(§1) Total cellular RNA was extracted from cells with RNeasy Mini Kit or RNeasy Micro Kit (Qiagen, Hilden, Germany), reverse transcribed with oligo-dT18 using Superscript II (Invitrogen, Carlsbad, Calif., USA), and subjected to real-time quantitative analysis on ABI PRISM 7700 Sequence Detection System instrument and software (Applied Biosystems, Foster City, Calif., USA) using the QuantiTect SYBR Green PCR Kit (Qiagen). Reactions were performed in triplicates with primer amplifying a specific region of the codon optimized
A direct consequence of reprogramming transcription factor expression is the induction of pluripotency marker genes at the transcriptional level. […]

[1] = system: murine embryonic fibroblasts (MEFs); assay: Luciferase reporter gene assay in murine fibroblasts electroporated with IVT RNA; assay type: cell-based; details: 0.5 μM to 2 μM, mouse fibroblasts, after electroporation
Protocol: (A-C) Primary human foreskin fibroblasts from different donors and suppliers (panel A: BJ fibroblasts; panel B CCD1079Sk; panel C: HFF) and (D) murine embryonic fibroblasts (MEFs) were electroporated with 0.5 μg IVT RNA encoding for firefly luciferase and 1.25 μg IVT RNA encoding for enhanced GFP (eGFP). The cells were plated in duplicates into 96-well-plates at a density of 30000 cells/well. The cells were either left untreated or incubated with increasing amounts of C13H8N4OS (PKR-inhibitor) ranging from 0.5 μM to 2 μM as indicated in the panel legends. Luciferase activity was measured at the indicated time points. Mean values of the duplicates are given.
Transfer of IVT-RNA into cells was performed by electroporation (EP). To this end, 1-10×10^7 cells per EP were harvested, washed sequentially with PBS supplemented with 2 mM EDTA and X-VIVO 15 medium (Lonza), resuspended in 125 μl X-VIVO 15 medium and transferred to a 2-mm gap sterile electroporation cuvette (Bio-RAD, Hercules, Calif., USA). […]
For luciferase assays, cells electroporated with in vitro transcribed RNA coding for luciferase were plated in 96-well white flat-bottom microplates (Nunc, Langenselbold, Germany) and incubated at 37° C. […] Bioluminescence flux was measured with the Infinite M200 microplate luminescence reader (Tecan, Crailsheim, Germany) with 1 s integration time. […]

[2] = system: Primary human foreskin fibroblasts (CCD1079SK); assay: Induction of type-I interferon transcripts (qRT-PCR) after IVT RNA electroporation; assay type: cell-based; details: 2 μM C13H8N4OS
Protocol: Primary human foreskin fibroblasts (CCD1079SK) were electroporated with 1 μg IVT RNA encoding for firefly luciferase and 5 μg IVT RNA encoding for destabilized GFP (luc+GFP). The cells were either left untreated or incubated with 2 μM C13H8N4OS (PKR-inhibitor). Upregulation of interferon-alpha and interferon-betatranscripts in human fibroblasts induced by RNA electroporation was observed (FIGS. 1A and 1C).
as §1
Primary human foreskin fibroblasts (CCD1079SK) were electroporated with 1 μg IVT RNA encoding for firefly luciferase and 5 μg IVT RNA encoding for destabilized GFP (luc+GFP). Electroporations were performed in 2 mm gap cuvettes using optimized parameters. The cells were plated in 6-well-plates at a density of 300000 cells/well and either left untreated or incubated with 2 μM C13H8N4OS (PKR-inhibitor). 24 h later cells were harvested for total RNA extraction and reverse transcription. The induction of type-I interferons was assessed by qRT-PCR using specific primer for IFNα or IFNβ in the presence or absence of PKR-inhibitor as indicated in FIG. 1. Panels A and C show the same samples as B and D with reduced values of the y-axis.

[3] = system: Primary human foreskin fibroblasts (BJ, CCD1079Sk, HFF); assay type: cell-based; details: for luciferase expression after transient treatment: BJ and CCD1079SK

O=C1Nc2ccc3ncsc3c2/C1=C/c1c[nH]cn1 [C13H8N4OS, 6,8-dihydro-8-(1H-imidazol-5-ylmethylene)-7H-pyrrolo[2,3-g]benzothiazol-7-one]
GDF3 induction (qRT-PCR) (CCD1079SK fibroblasts): increased
hTERT induction (qRT-PCR) (CCD1079SK fibroblasts): increased
luciferase expression [1]: dose dependent increase
IFN-α transcript induction ([2]; 24 h, with or without RNA): induced even in the absence of RNA
IFN-β transcript induction ([2]; 24 h, with or without RNA): only in the presence of RNA
interferon transcripts (IFNα, IFNβ; qRT-PCR) ([2]; 24 h after electroporation with luc+GFP IVT RNA, vs untreated): overwhelming increase
luciferase expression ([3]; 0.5 μM to 2 μM, human fibroblasts, after electroporation): dose dependent increase
luciferase expression on additional application of inhibitor ([3]; 2 μM C13H8N4OS on CCD1079SK cotransfected with E3/K3, vs untreated controls): additive increase of luciferase expression and a stabilization
luciferase expression after transient treatment ([3]; 2 μM, 7 h incubation period): did not results in a significant increase of luciferase expression
luciferase expression after transient treatment ([3]; 2 μM, 24 h treatment): rapidly reversed after removal of the inhibitors
luciferase expression after transient treatment ([3]; 2 μM, 48 h treatment): less efficient than a permanent treatment
luciferase expression from modified (5mC and PU) IVT RNA ([3]; 2 μM, CCD1079Sk, 7 h to 72 h): further increases and stabilizes
luciferase expression from unmodified IVT-RNA ([3]; 2 μM, CCD1079Sk, 7 h to 72 h): greatly enhanced and stabilized
duration of high luciferase expression levels ([3]; 2 μM, permanent inhibition): 5 days
stabilization of luciferase expression ([3]; highest concentration used (2 μM)): high level of stabilization

Source: patent US20140030808A1, “Method for Cellular RNA Expression” (BIONTECH AG, priority 2010, published 2014)
